Data: article PMC10141580, “Cyclic Dichalcogenides Extend the Reach of Bioreductive Prodrugs to Harness Thiol/Disulfide Oxidoreductases: Applications to seco-Duocarmycins Targeting the Thioredoxin System” (ACS Central Science, 2023)
Read-outs that look alike come from different tables or passages of the source.

Test system: NCI-60 standardized human tumor cell line panel
Test: cells
Assay type: cell-based
Details: for NCI-60 screening: Log(GI50): log10 of GI50 in M; for NCI-60 screening: Log(RedIndex): log10 reductive index vs P-CC60

COc1cc2cc(C(=O)N3CC(CCl)c4c3cc(OC(=O)N3CCN(C)C5CSSCC53)c3ccccc43)[nH]c2c(OC)c1OC (mixture of isomers) [Me-SS66C-CBI-TMI]
NCI-60 screening: Log(GI50) (786-0 (RE) cell line): -6.71 | NCI-60 screening: Log(RedIndex) (786-0 (RE) cell line): 0.94 | GI50 (786-0 (RE) cell line, read-out: NCI-60 screening: Raw GI50): 200 nM | GI50 (786-0, read-out: GI50): 200 nM | NCI-60 screening: Log(GI50) (A498 (RE) cell line): -5.91 | NCI-60 screening: Log(RedIndex) (A498 (RE) cell line): 0.35 | GI50 (A498, read-out: GI50): 1200 nM | GI50 (A549/ATCC, read-out: GI50): 180 nM | NCI-60 screening: Log(GI50) (ACHN (RE) cell line): -7.55 | NCI-60 screening: Log(RedIndex) (ACHN (RE) cell line): 1.24 | GI50 (ACHN (RE) cell line, read-out: NCI-60 screening: Raw GI50): 28 nM | GI50 (ACHN, read-out: GI50): 28 nM | GI50 (BT-549, read-out: GI50): 170 nM | NCI-60 screening: Log(GI50) (CAKI-1 (RE) cell line): -6.61 | NCI-60 screening: Log(RedIndex) (CAKI-1 (RE) cell line): 0.78 | GI50 (CAKI-1 (RE) cell line, read-out: NCI-60 screening: Raw GI50): 250 nM | GI50 (CAKI-1, read-out: GI50): 250 nM | GI50 (CCRF-CEM, read-out: GI50): 110 nM | GI50 (COLO 205, read-out: GI50): 330 nM | NCI-60 screening: Log(GI50) (DU-145 (PR) cell line): -7.2 | NCI-60 screening: Log(RedIndex) (DU-145 (PR) cell line): 0.86 | GI50 (DU-145, read-out: GI50): 63 nM | GI50 (EKVX, read-out: GI50): 230 nM | GI50 (HCC-2998, read-out: GI50): 140 nM | GI50 (HCT-15, read-out: GI50): 250 nM | GI50 (HCT-116, read-out: GI50): 190 nM | GI50 (HL-60(TB), read-out: GI50): 52 nM | GI50 (HOP-62, read-out: GI50): 200 nM | GI50 (HOP-92, read-out: GI50): 240 nM | GI50 (HT29, read-out: GI50): 230 nM | NCI-60 screening: Log(GI50) (IGROV1 (OV) cell line): -5.82 | NCI-60 screening: Log(RedIndex) (IGROV1 (OV) cell line): 0.18 | GI50 (IGROV1, read-out: GI50): 1500 nM | GI50 (K-562, read-out: GI50): 400 nM | GI50 (KM12, read-out: GI50): 1100 nM | GI50 (LOX IMVI, read-out: GI50): 170 nM | GI50 (M14, read-out: GI50): 250 nM | GI50 (MALME-3M, read-out: GI50): 210 nM | GI50 (MCF7, read-out: GI50): 28 nM | GI50 (MDA-MB-435, read-out: GI50): 840 nM | GI50 (MDA-MB-468, read-out: GI50): 160 nM | GI50 (MOLT-4, read-out: GI50): 70 nM | GI50 (NCI-H23, read-out: GI50): 45 nM | GI50 (NCI-H226, read-out: GI50): 1000 nM | NCI-60 screening: Log(GI50) (NCI-H460 (LC) cell line): -7.39 | NCI-60 screening: Log(RedIndex) (NCI-H460 (LC) cell line): 1.1 | GI50 (NCI-H460, read-out: GI50): 41 nM | NCI-60 screening: Log(GI50) (NCI-H522 (LC) cell line): -6.84 | NCI-60 screening: Log(RedIndex) (NCI-H522 (LC) cell line): 1.07 | GI50 (NCI-H522 (LC) cell line, read-out: NCI-60 screening: Raw GI50): 150 nM | GI50 (NCI-H522, read-out: GI50): 150 nM | NCI-60 screening: Log(GI50) (OVCAR-3 (OV) cell line): -6.31 | NCI-60 screening: Log(RedIndex) (OVCAR-3 (OV) cell line): 0.63 | GI50 (OVCAR-3, read-out: GI50): 490 nM | NCI-60 screening: Log(GI50) (OVCAR-4 (OV) cell line): -5.79 | NCI-60 screening: Log(RedIndex) (OVCAR-4 (OV) cell line): 0.16 | GI50 (OVCAR-4, read-out: GI50): 1600 nM | NCI-60 screening: Log(GI50) (OVCAR-5 (OV) cell line): -6.55 | NCI-60 screening: Log(RedIndex) (OVCAR-5 (OV) cell line): 1.26 | GI50 (OVCAR-5, read-out: GI50): 280 nM | NCI-60 screening: Log(GI50) (OVCAR-8 (OV) cell line): -6.82 | NCI-60 screening: Log(RedIndex) (OVCAR-8 (OV) cell line): 1.04 | GI50 (OVCAR-8 (OV) cell line, read-out: NCI-60 screening: Raw GI50): 150 nM | GI50 (OVCAR-8, read-out: GI50): 150 nM | NCI-60 screening: Log(GI50) (PC-3 (PR) cell line): -6.45 | NCI-60 screening: Log(RedIndex) (PC-3 (PR) cell line): 0.94 | GI50 (PC-3, read-out: GI50): 360 nM | GI50 (RPMI-8226, read-out: GI50): 160 nM | NCI-60 screening: Log(GI50) (RXF 393 (RE) cell line): -6.88 | NCI-60 screening: Log(RedIndex) (RXF 393 (RE) cell line): 0.9 | GI50 (RXF 393 (RE) cell line, read-out: NCI-60 screening: Raw GI50): 130 nM | GI50 (RXF 393, read-out: GI50): 130 nM | GI50 (SF-268, read-out: GI50): 170 nM | GI50 (SF-295, read-out: GI50): 130 nM | GI50 (SF-539, read-out: GI50): 170 nM | GI50 (SK-MEL-5, read-out: GI50): 170 nM | GI50 (SK-MEL-28, read-out: GI50): 260 nM | NCI-60 screening: Log(GI50) (SK-OV-3 (OV) cell line): -7.47 | NCI-60 screening: Log(RedIndex) (SK-OV-3 (OV) cell line): 1.8 | GI50 (SK-OV-3, read-out: GI50): 34 nM | NCI-60 screening: Log(GI50) (SN12C (RE) cell line): -6.69 | NCI-60 screening: Log(RedIndex) (SN12C (RE) cell line): 0.77 | GI50 (SN12C (RE) cell line, read-out: NCI-60 screening: Raw GI50): 200 nM | GI50 (SN12C, read-out: GI50): 200 nM | GI50 (SNB-19, read-out: GI50): 220 nM | GI50 (SR, read-out: GI50): 37 nM | GI50 (SW-620, read-out: GI50): 260 nM | GI50 (T-47D, read-out: GI50): 290 nM | NCI-60 screening: Log(GI50) (TK-10 (RE) cell line): -5.89 | NCI-60 screening: Log(RedIndex) (TK-10 (RE) cell line): 0.34 | GI50 (TK-10, read-out: GI50): 1300 nM
